Reference: PMC4635063 (Cephalalgia : an international journal of headache, 2015)

What was measured:
[1] = biological target: T1, TRPM8 (transient receptor potential channel M8) (Rattus norvegicus, UniProt Q8R455); assay: agonist; assay type: cell-based
[2] = biological target: T1, TRPM8 (transient receptor potential channel M8); assay: aequorin luminescence calcium assay in CHO cells, inhibition of icilin; assay type: cell-based

T1 sequence (Q8R455 whole entry): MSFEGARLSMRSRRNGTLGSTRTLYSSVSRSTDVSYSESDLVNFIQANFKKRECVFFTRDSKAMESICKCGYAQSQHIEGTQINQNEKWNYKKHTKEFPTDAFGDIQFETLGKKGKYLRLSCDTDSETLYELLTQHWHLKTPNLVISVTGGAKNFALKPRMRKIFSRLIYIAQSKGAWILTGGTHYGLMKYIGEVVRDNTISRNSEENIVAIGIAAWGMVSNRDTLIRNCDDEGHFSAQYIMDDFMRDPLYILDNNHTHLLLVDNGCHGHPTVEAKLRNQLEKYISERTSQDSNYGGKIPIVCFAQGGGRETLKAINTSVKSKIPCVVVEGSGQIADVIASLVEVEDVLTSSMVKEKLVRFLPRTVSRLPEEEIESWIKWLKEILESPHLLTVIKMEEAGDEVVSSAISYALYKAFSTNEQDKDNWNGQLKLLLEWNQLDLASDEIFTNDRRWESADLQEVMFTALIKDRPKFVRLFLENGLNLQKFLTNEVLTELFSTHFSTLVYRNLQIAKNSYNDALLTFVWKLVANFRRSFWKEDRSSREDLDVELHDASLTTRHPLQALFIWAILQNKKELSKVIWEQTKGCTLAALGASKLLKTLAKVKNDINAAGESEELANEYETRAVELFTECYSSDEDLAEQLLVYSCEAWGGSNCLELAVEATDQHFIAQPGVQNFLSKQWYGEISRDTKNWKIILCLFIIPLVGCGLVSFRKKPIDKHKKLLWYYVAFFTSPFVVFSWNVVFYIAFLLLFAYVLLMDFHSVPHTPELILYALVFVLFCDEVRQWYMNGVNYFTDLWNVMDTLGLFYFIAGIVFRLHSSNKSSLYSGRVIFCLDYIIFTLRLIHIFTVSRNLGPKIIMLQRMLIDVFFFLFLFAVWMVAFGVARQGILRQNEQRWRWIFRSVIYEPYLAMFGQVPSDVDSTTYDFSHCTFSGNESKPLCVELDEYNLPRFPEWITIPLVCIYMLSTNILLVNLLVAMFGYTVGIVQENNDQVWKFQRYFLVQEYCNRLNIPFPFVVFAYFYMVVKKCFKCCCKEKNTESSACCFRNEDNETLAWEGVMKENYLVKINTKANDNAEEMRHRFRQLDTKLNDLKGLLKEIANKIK

O=C1NC(c2cccc([N+](=O)[O-])c2)=CCN1c1ccccc1O [icilin]
agonist (1 uM) in aequorin luminescence calcium assay in CHO cells [1]: inhibition of TRPM8 activation by icilin and cold in cultured CHO cells stably transfected with rat TRPM8 channel

AMG1161
IC50 [2]: 0.023 ± 0.0009 µM
